From patent publication US20250327074A1 (SHAOXING INSTITUTE, ZHEJIANG UNIVERSITY, priority 2024, published 2025)

The molecules below were run on TCG codon, mammalian cells (assay: TCG codon recoding efficiency of all amino acids (Table 1)). Conditions: TCG codon recoding of the unnatural amino acid with the aaRS and mutation of the same table line; class symbols.
Type: cell-based
From the text: Specific details are shown in Table 1 below, where “wt” represents the wild-type aminoacyl-tRNA synthetase, “mutation sites” indicate the positions and types of mutations related to specific unnatural amino acid binding on the wild-type aminoacyl-tRNA synthetase, and “unnatural amino acid” represents the unnatural amino acid corresponding to the mutated aminoacyl-tRNA synthetase. In the unnatural amino acid encoding efficiency, “+” indicates a recoding efficiency greater than 40%, “++” greater than 60%, and “+++” greater than 80%.
Accordingly, this application compiles all amino acids reported in the literature that are recognized by orthogonal aminoacyl-tRNA synthetases in mammalian systems and evaluates their recoding efficiency using the TCG codon as an example.

Row | SMILES | Recoding rate (%)
1 | CC(OC(=O)CC(N)C(=O)O)c1ccccc1[N+](=O)[O-] (mixture of isomers) [compound 262] | ++ (“++” greater than 60%)
2 | CC(SCC(N)C(=O)O)c1cc2c(cc1[N+](=O)[O-])OCO2 (mixture of isomers) [compound 269] | + (“+” indicates a recoding efficiency greater than 40%)
3 | CC(OC(=O)NCSCC(N)C(=O)O)c1cc2c(cc1[N+](=O)[O-])OCO2 (mixture of isomers) [compound 270] | + (“+” indicates a recoding efficiency greater than 40%)
4 | CC(OC(=O)NCSCCC(N)C(=O)O)c1cc2c(cc1[N+](=O)[O-])OCO2 (mixture of isomers) [compound 271] | + (“+” indicates a recoding efficiency greater than 40%)
5 | CC([Se]CC(N)C(=O)O)c1cc2c(cc1[N+](=O)[O-])OCO2 (mixture of isomers) [compound 275] | + (“+” indicates a recoding efficiency greater than 40%)
6 | CC(SCCOC(=O)NCC(N)C(=O)O)c1cc2c(cc1[N+](=O)[O-])OCO2 (mixture of isomers) [compound 276] | + (“+” indicates a recoding efficiency greater than 40%)
7 | N[C@@H](Cc1ccc2ncccc2c1)C(=O)O [compound 230] | + (“+” indicates a recoding efficiency greater than 40%)
8 | N[C@@H](Cc1ccc(Oc2ccc(O)cc2)cc1)C(=O)O [compound 231] | ++ (“++” greater than 60%)
9 | N[C@@H](Cc1ccc(OCC2CCCC2)cc1)C(=O)O [compound 238] | ++ (“++” greater than 60%)
10 | CC#CCOc1ccc(C[C@H](N)C(=O)O)cc1 [compound 239] | ++ (“++” greater than 60%)
11 | C=CCCOc1ccc(C[C@H](N)C(=O)O)cc1 [compound 242] | ++ (“++” greater than 60%)
12 | C=CCCCOc1ccc(C[C@H](N)C(=O)O)cc1 [compound 243] | ++ (“++” greater than 60%)
13 | N[C@@H](Cc1ccc2c(c1)OCO2)C(=O)O [compound 248] | + (“+” indicates a recoding efficiency greater than 40%)
14 | N[C@@H](Cc1ccc2ccccc2c1)C(=O)O [compound 249] | + (“+” indicates a recoding efficiency greater than 40%)
15 | N[C@@H](Cc1cn(Cc2ccccc2[N+](=O)[O-])cn1)C(=O)O [compound 254] | ++ (“++” greater than 60%)
16 | N[C@@H](CCC(=O)OCc1ccccc1[N+](=O)[O-])C(=O)O [compound 263] | + (“+” indicates a recoding efficiency greater than 40%)
17 | N[C@@H](CCC(=O)OCc1cc2c(cc1[N+](=O)[O-])OCO2)C(=O)O [compound 264] | ++ (“++” greater than 60%)
18 | N[C@@H](CCC(=O)OCc1ccccc1)C(=O)O [compound 265] | ++ (“++” greater than 60%)
19 | N[C@@H](CC(=O)SCCNC(=O)OC1CCCC1)C(=O)O [compound 267] | ++ (“++” greater than 60%)

Row | SMILES | Recoding rate (%)
20 | N[C@@H](CSCc1ccccc1[N+](=O)[O-])C(=O)O [compound 268] | + (“+” indicates a recoding efficiency greater than 40%)
21 | C=CC[Se]C[C@H](N)C(=O)O [compound 272] | + (“+” indicates a recoding efficiency greater than 40%)
22 | C#CCSC[C@H](N)C(=O)O [compound 273] | + (“+” indicates a recoding efficiency greater than 40%)
23 | N[C@@H](CCSCNC(=O)Cc1ccccc1)C(=O)O [compound 274] | ++ (“++” greater than 60%)
24 | CN(C)c1ccc(-c2oc(N)nc2C(=O)O)cc1 [compound 279] | ++ (“++” greater than 60%)
25 | C=CCSC[C@H](N)C(=O)O [compound 280] | + (“+” indicates a recoding efficiency greater than 40%)
26 | N[C@@H](Cc1c[nH]c2c3c(ccc12)OCC3)C(=O)O [compound 285] | ++ (“++” greater than 60%)
27 | N[C@@H](Cc1ccc(OS(=O)(=O)F)cc1)C(=O)O [compound 287] | +++ (“+++” greater than 80%)
28 | CN(C)c1cccc(C[C@H](N)C(=O)O)c1 [compound 288] | +++ (“+++” greater than 80%)
29 | N[C@@H](Cc1cccc(N2CCCC2)c1)C(=O)O [compound 289] | ++ (“++” greater than 60%)
30 | Cc1ccc2c(C[C@H](N)C(=O)O)c[nH]c2c1C [compound 295] | +++ (“+++” greater than 80%)
31 | COc1ccc2c(C[C@H](N)C(=O)O)c[nH]c2c1OC [compound 296] | +++ (“+++” greater than 80%)
32 | COc1cccc2c(C[C@H](N)C(=O)O)c[nH]c12 [compound 303] | +++ (“+++” greater than 80%)
33 | N[C@@H](Cc1ccc(C#CCCC2CCCC2)cc1)C(=O)O [compound 304] | ++ (“++” greater than 60%)
34 | CCCCC#Cc1ccc(C[C@H](N)C(=O)O)cc1 [compound 310] | +++ (“+++” greater than 80%)
35 | CCCCCC#Cc1ccc(C[C@H](N)C(=O)O)cc1 [compound 311] | +++ (“+++” greater than 80%)
36 | CCCCCCC#Cc1ccc(C[C@H](N)C(=O)O)cc1 [compound 312] | ++ (“++” greater than 60%)
37 | CCCCCCCC#Cc1ccc(C[C@H](N)C(=O)O)cc1 [compound 313] | + (“+” indicates a recoding efficiency greater than 40%)

Same assay, conditions: TCG codon recoding of the unnatural amino acid with the aaRS and mutation of the same table line; numeric values

Row | SMILES | Recoding rate (%)
38 | N[C@@H](Cc1cccc(F)c1F)C(=O)O [compound 228] | 80? %
39 | N[C@@H](Cc1cc(F)c(F)cc1F)C(=O)O [compound 229] | 83%
40 | N[C@@H](Cc1ccccc1[N+](=O)[O-])C(=O)O [compound 232] | 72%
41 | N[C@@H](Cc1cccc(C(F)(F)F)c1)C(=O)O [compound 234] | 81%
42 | N#Cc1cccc(C[C@H](N)C(=O)O)c1 [compound 235] | 74%
43 | N[C@@H](Cc1cccc([N+](=O)[O-])c1)C(=O)O [compound 237] | 85%
44 | N[C@@H](Cc1ccc(OCc2ccccc2)cc1)C(=O)O [compound 240] | 46%
45 | C=CCOc1ccc(C[C@H](N)C(=O)O)cc1 [compound 241] | 83%
46 | CC(C)(C)Oc1ccc(C[C@H](N)C(=O)O)cc1 [compound 244] | 72%
47 | N[C@@H](Cc1cc(Br)ccc1Cl)C(=O)O [compound 245] | 75%
48 | N[C@@H](Cc1cc(Cl)ccc1Cl)C(=O)O [compound 246] | 84%
49 | N[C@@H](Cc1cccnc1)C(=O)O [compound 247] | 83%
50 | N[C@@H](Cc1c[nH]c2c(F)cccc12)C(=O)O [compound 250] | 74%
51 | N[C@@H](Cc1c[nH]c2ncccc12)C(=O)O [compound 251] | 22%
52 | N[C@@H](Cc1csc2ccccc12)C(=O)O [compound 252] | 89%
53 | Cn1cncc1C[C@H](N)C(=O)O [compound 253] | 85%
54 | N[C@@H](Cc1ccsc1)C(=O)O [compound 256] | 64%
55 | N[C@@H](Cc1cncs1)C(=O)O [compound 257] | 91%
56 | N[C@@H](Cc1cccs1)C(=O)O [compound 258] | 72%
57 | N[C@@H](Cc1ccc(Br)s1)C(=O)O [compound 259] | 87%
58 | N[C@@H](Cc1ccco1)C(=O)O [compound 260] | 43%
59 | N[C@@H](CC(=O)OCc1ccccc1[N+](=O)[O-])C(=O)O [compound 261] | 23%

Row | SMILES | Recoding rate (%)
60 | N[C@@H](CC(=O)OCc1ccccc1)C(=O)O [compound 266] | 75%
61 | N[C@@H](Cc1ccc2c(c1)C(=O)C1C=CC=CC1N2)C(=O)O (some centres unmarked) [compound 277] | 63%
62 | CCCSC(=O)CCC(=O)NCCCC[C@H](N)C(=O)O [compound 283] | 55%
63 | CCCSC(=O)CCCC(=O)NCCCC[C@H](N)C(=O)O [compound 284] | 57%
64 | N[C@@H](Cc1cccc(I)c1)C(=O)O [compound 286] | 61%
65 | Cc1ccc2c(C[C@H](N)C(=O)O)c[nH]c2c1 [compound 290] | 76%
66 | N[C@@H](Cc1c[nH]c2cc(Cl)ccc12)C(=O)O [compound 291] | 73%
67 | N[C@@H](Cc1c[nH]c2cc(Br)ccc12)C(=O)O [compound 292] | 73%
68 | N#Cc1ccc2c(C[C@H](N)C(=O)O)c[nH]c2c1 [compound 293] | 84%
69 | COc1ccc2c(C[C@H](N)C(=O)O)c[nH]c2c1 [compound 294] | 63%
70 | N[C@@H](Cc1ccc(I)cc1)C(=O)O [compound 297] | 43%
71 | [N-]=[N+]=Nc1ccc(C[C@H](N)C(=O)O)cc1 [compound 298] | 88%
72 | N[C@@H](Cc1csc2ccccc12)C(=O)O [compound 299] | 84%
73 | Cc1cccc2c(C[C@H](N)C(=O)O)c[nH]c12 [compound 300] | 69%
74 | N[C@@H](Cc1c[nH]c2c(Cl)cccc12)C(=O)O [compound 301] | 71%
75 | N#Cc1cccc2c(C[C@H](N)C(=O)O)c[nH]c12 [compound 302] | 69%
76 | CC(=O)c1ccc(C[C@H](N)C(=O)O)cc1 [compound 305] | 92%
77 | N#Cc1cccc(C[C@H](N)C(=O)O)c1 [compound 306] | 75%
78 | N[C@@H](Cc1ccc2ccccc2c1)C(=O)O [compound 307] | 66%
79 | COc1ccc(C[C@H](N)C(=O)O)cc1 [compound 308] | 68%
80 | Cn1cc(C[C@H](N)C(=O)O)c2ccccc21 [compound 309] | 63%
